Reference: US11072585B2 (PharmAkea, Inc., priority 2015, dated 2021)
Where a name gives a salt, the structure may show the parent alone.

Target: human LOXL2 (Homo sapiens (Human), UniProt Q9Y4K0)
Experiment: Human LOXL2 amine oxidase activity assay (Amplex Red)
Assay type: biochemical
Conditions: concentrated conditioned media from CHO cells stably expressing human LOXL2; 2 h at 37° C. with compound; DAP substrate
Procedure: Example B-1: Human LOXL2 Amine Oxidase Activity Assay
LOXL2 amine oxidase activity is evaluated by measuring Amplex Red fluorescence using 10-20× concentrated conditioned media from CHO cells stably expressing human LOXL2. To assay for amine oxidase activity, 10 μL of the concentrated conditioned media is incubated with 2 μL of test compound in DMSO and 73 μL Assay Buffer (50 mM Borate Buffer, pH8) for 2 h at 37° C. After the 2 h incubation, 5 ul of 10 mM 1,5-Diaminopentane (DAP) diluted in Assay Buffer and 10 μl of Amplex Red Mix (8.5 μl Assay Buffer+0.5 μl of 10 mM Amplex Red+1 μl of 500 U/ml Horseradish Peroxidase) are added and the plate mixed and immediately placed on the FlexStaion for fluorescence measurements. Fluorescence is read in kinetic mode every 2 min for 1 hour at excitation=544 and emission=590. The amine oxidase activity is calculated from the slope of the linear portion of the curve.

Chain of human LOXL2 (Q9Y4K0 26-774): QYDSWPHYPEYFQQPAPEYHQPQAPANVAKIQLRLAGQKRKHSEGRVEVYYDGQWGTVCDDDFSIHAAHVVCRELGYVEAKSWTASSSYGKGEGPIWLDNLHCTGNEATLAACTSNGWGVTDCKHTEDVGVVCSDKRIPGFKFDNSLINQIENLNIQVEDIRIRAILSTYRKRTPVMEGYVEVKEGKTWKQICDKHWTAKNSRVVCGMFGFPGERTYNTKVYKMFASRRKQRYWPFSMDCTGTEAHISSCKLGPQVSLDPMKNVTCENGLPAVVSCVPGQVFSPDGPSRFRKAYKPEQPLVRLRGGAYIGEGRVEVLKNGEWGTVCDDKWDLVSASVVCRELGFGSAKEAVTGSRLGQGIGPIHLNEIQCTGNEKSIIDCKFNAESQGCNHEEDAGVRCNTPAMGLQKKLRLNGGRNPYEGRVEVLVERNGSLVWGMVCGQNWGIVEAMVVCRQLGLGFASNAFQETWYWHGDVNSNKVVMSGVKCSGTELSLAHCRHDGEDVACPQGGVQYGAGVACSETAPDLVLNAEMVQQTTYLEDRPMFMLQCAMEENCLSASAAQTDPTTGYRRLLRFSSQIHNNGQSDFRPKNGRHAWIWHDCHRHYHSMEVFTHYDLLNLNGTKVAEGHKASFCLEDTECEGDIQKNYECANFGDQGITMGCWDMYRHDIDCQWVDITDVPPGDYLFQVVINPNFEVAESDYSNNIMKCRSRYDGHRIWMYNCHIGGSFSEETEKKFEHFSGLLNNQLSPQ

| IC50 [nM] | SMILES |
| --- | --- |
| 300 to 1000 | NCc1cc(OC[C@H]2CCCN(C(=O)Nc3ccccc3)C2)nc(C(F)(F)F)c1 [Compound 1-45, (S)-3-(((4-(Aminomethyl)-6-(trifluoromethyl)pyridin-2-yl)oxy)methyl)-N-phenylpiperidine-1-carboxamide trifluoroacetate] |
| < 300 | CC(C)C(=O)N1CCC[C@H](Oc2cc(CN)cc(C(F)(F)F)n2)C1 [Compound 1-52, (S)-1-(3-((4-(Aminomethyl)-6-(trifluoromethyl)pyridin-2-yl)oxy)piperidin-1-yl)-2-methylpropan-1-one trifluoroacetate] |
| < 300 | NCc1cc(Oc2cccc(C(=O)N3CC[C@@H](F)C3)c2)nc(C(F)(F)F)c1 [Compound 1-212, (R)-(3-((4-(Aminomethyl)-6-(trifluoromethyl)pyridin-2-yl)oxy)phenyl)(3-fluoropyrrolidin-1-yl)methanone hydrochloride] |
| < 300 | NCc1cc(Oc2cccc(C(=O)Nc3ccccc3N)c2)nc(C(F)(F)F)c1 [Compound 1-225, 3-((4-(Aminomethyl)-6-(trifluoromethyl)pyridin-2-yl)oxy)-N-(2-aminophenyl)benzamide hydrochloride] |
| < 300 | N#CC1CN(C(=O)c2cccc(Oc3cc(CN)cc(C(F)(F)F)n3)c2)C1 [Compound 1-199, 1-(3-((4-(Aminomethyl)-6-(trifluoromethyl)pyridin-2-yl)oxy)benzoyl)azetidine-3-carbonitrile trifluoroacetate] |
| < 300 | NCc1cc(Oc2cccc(C(=O)N3C[C@@H](F)[C@@H](O)C3)c2)nc(C(F)(F)F)c1 (racemic) [Compound 1-211, Racemic-cis-(3-((4-(aminomethyl)-6-(trifluoromethyl)pyridin-2-yl)oxy)phenyl)(3-fluoro-4-hydroxypyrrolidin-1-yl)methanone hydrochloride] |
| < 300 | NCc1cc(Oc2cncc(C(=O)N3C[C@@H](O)[C@H](F)C3)c2)nc(C(F)(F)F)c1 (racemic) [Compound 1-55, Racemic-trans-(5-((4-(aminomethyl)-6-(trifluoromethyl)pyridin-2-yl)oxy)pyridin-3-yl)(-3-fluoro-4-hydroxypyrrolidin-1-yl)methanone hydrochloride] |
| 300 to 1000 | C#C[C@H](CC(=O)O)NC(=O)c1cccc(Oc2cc(CN)cc(C(F)(F)F)n2)c1 [Compound 1-221, (S)-3-(3-((4-(aminomethyl)-6-(trifluoromethyl)pyridin-2-yl)oxy)benzamido)pent-4-ynoic acid] |
| > 1000 | NCc1cc(-n2ccccc2=O)nc(C(F)(F)F)c1 [Compound 1-161, 4′-(Aminomethyl)-6′-(trifluoromethyl)-2H-[1,2′-bipyridin]-2-one hydrochloride] |
| < 300 | NCc1cc(OCc2cccc(C(=O)N3C[C@@H](O)[C@H](F)C3)c2)nc(C(F)(F)F)c1 (racemic) [Compound 1-36, Racemic-trans-(3-(((4-(aminomethyl)-6-(trifluoromethyl)pyridin-2-yl)oxy)methyl)phenyl)(3-fluoro-4-hydroxypyrrolidin-1-yl)methanone hydrochloride] |
| < 300 | CN(CCO)C(=O)c1cccc(Oc2cc(CN)cc(C(F)(F)F)n2)c1 [Compound 1-202, 3-((4-(Aminomethyl)-6-(trifluoromethyl)pyridin-2-yl)oxy)-N-(2-hydroxyethyl)-N-methylbenzamide hydrochloride] |
| < 300 | C#CCCCCNC(=O)c1cccc(Oc2cc(CN)cc(C(F)(F)F)n2)c1 [Compound 1-216, 3-((4-(Aminomethyl)-6-(trifluoromethyl)pyridin-2-yl)oxy)-N-(hex-5-yn-1-yl)benzamide trifluoroacetate] |
| < 300 | C#Cc1cccc(NC(=O)c2cccc(Oc3cc(CN)cc(C(F)(F)F)n3)c2)c1 [Compound 1-247, 3-((4-(Aminomethyl)-6-(trifluoromethyl)pyridin-2-yl)oxy)-N-(3-ethynylphenyl)benzamide hydrochloride] |
| > 1000 | N=C(N)NC(=O)Cn1ccc2c(Oc3cc(CN)cc(C(F)(F)F)n3)cccc21 [Compound 1-234, 2-(4-((4-(Aminomethyl)-6-(trifluoromethyl)pyridin-2-yl)oxy)-1H-indol-1-yl)-N-carbamimidoylacetamide dihydrochloride] |
| > 1000 | Cc1cc(=O)n(Cc2cc(CN)cc(C(F)(F)F)n2)c(=O)n1CCO [Compound 1-135, 3-((4-(Aminomethyl)-6-(trifluoromethyl)pyridin-2-yl)methyl)-1-(2-hydroxyethyl)-6-methylpyrimidine-2,4(1H,3H)-dione hydrochloride] |
| < 300 | NCc1cc(Oc2cc(O)cc(C(=O)N3C[C@@H](O)[C@H](F)C3)c2)nc(C(F)(F)F)c1 (racemic) [Compound 1-230, Racemic-trans-(3-((4-(aminomethyl)-6-(trifluoromethyl)pyridin-2-yl)oxy)-5-hydroxyphenyl)(3-fluoro-4-hydroxypyrrolidin-1-yl)methanone hydrochloride] |
| < 300 | NCc1cc(Oc2ccnc(C(=O)Nc3ccccc3)c2)nc(C(F)(F)F)c1 [Compound 1-252, 4-((4-(Aminomethyl)-6-(trifluoromethyl)pyridin-2-yl)oxy)-N-phenylpicolinamide hydrochloride] |
| < 300 | COC(=O)c1cccc(C(=O)Nc2cc(CN)cc(C(F)(F)F)n2)c1 [Compound 1-238, Methyl 3-((4-(aminomethyl)-6-(trifluoromethyl)pyridin-2-yl)carbamoyl)benzoate trifluoroacetate] |
| < 300 | NCc1cc(Oc2cc(C(=O)N3C[C@@H](O)[C@H](F)C3)ccc2OCc2ccccc2)nc(C(F)(F)F)c1 (racemic) [Compound 1-231, Racemic-trans-(3-((4-(aminomethyl)-6-(trifluoromethyl)pyridin-2-yl)oxy)-4-(benzyloxy)phenyl)(3-fluoro-4-hydroxypyrrolidin-1-yl)methanone] |
| < 300 | COCC1CN(C(=O)c2cccc(Oc3cc(CN)cc(C(F)(F)F)n3)c2)C1 [Compound 1-206, (3-((4-(Aminomethyl)-6-(trifluoromethyl)pyridin-2-yl)oxy)phenyl)(3-(methoxymethyl)azetidin-1-yl)methanone hydrochloride] |
| < 300 | NCc1cc(Sc2cccc(C(=O)Nc3ccccc3)c2)nc(C(F)(F)F)c1 [Compound 1-68, 3-((4-(Aminomethyl)-6-(trifluoromethyl)pyridin-2-yl)thio)-N-phenylbenzamide hydrochloride] |
| < 300 | NCc1cc(O[C@H]2CCN(C(=O)Nc3ccccc3)C2)nc(C(F)(F)F)c1 [Compound 1-40, (S)-3-((4-(Aminomethyl)-6-(trifluoromethyl)pyridin-2-yl)oxy)-N-phenylpyrrolidine-1-carboxamide trifluoroacetate] |
| < 300 | NCc1cc(Oc2cccc(C(=O)N3CC=CC3)c2)nc(C(F)(F)F)c1 [Compound 1-215, (3-((4-(Aminomethyl)-6-(trifluoromethyl)pyridin-2-yl)oxy)phenyl)(2,5-dihydro-1H-pyrrol-1-yl)methanone hydrochloride] |
| < 300 | NCc1cc(O[C@@H]2CCN(C(=O)Nc3ccccc3)C2)nc(C(F)(F)F)c1 [Compound 1-39, (R)-3-((4-(Aminomethyl)-6-(trifluoromethyl)pyridin-2-yl)oxy)-N-phenylpyrrolidine-1-carboxamide trifluoroacetate] |
| < 300 | NCc1cc(Oc2cccc(C(=O)N3CCC4(CC3)CNC(=O)O4)c2)nc(C(F)(F)F)c1 [Compound 1-27, 8-(3-((4-(Aminomethyl)-6-(trifluoromethyl)pyridin-2-yl)oxy)benzoyl)-1-oxa-3,8-diazaspiro[4.5]decan-2-one hydrochloride] |
| < 300 | NCc1cc(Oc2cccc(COc3ccccc3)c2)nc(C(F)(F)F)c1 [Compound 1-4, (2-(3-(Phenoxymethyl)phenoxy)-6-(trifluoromethyl)pyridin-4-yl)methanamine trifluoroacetate] |
| < 300 | CC1(O)CCN(C(=O)c2cccc(Oc3cc(CN)cc(C(F)(F)F)n3)c2)CC1 [Compound 1-205, (3-((4-(Aminomethyl)-6-(trifluoromethyl)pyridin-2-yl)oxy)phenyl)(4-hydroxy-4-methylpiperidin-1-yl)methanone hydrochloride] |

| SMILES | IC50 [nM] |
| --- | --- |
| NCc1cc(Oc2cccc(C(=O)N3CC[C@@H](O)C3)c2)nc(C(F)(F)F)c1 [Compound 1-18, (R)-(3-((4-(Aminomethyl)-6-(trifluoromethyl)pyridin-2-yl)oxy)phenyl)(3-hydroxypyrrolidin-1-yl)methanone hydrochloride] | < 300 |
| NCc1cc(Oc2cccc(C(=O)NCCn3cncn3)c2)nc(C(F)(F)F)c1 [Compound 1-14, N-(2-(1H-1,2,4-Triazol-1-yl)ethyl)-3-((4-(aminomethyl)-6-(trifluoromethyl)pyridin-2-yl)oxy)benzamide hydrochloride] | < 300 |
| NCc1cc(Oc2cccc(C(=O)N3CC[C@@H](N)C3)c2)nc(C(F)(F)F)c1 [Compound 1-22, (R)-(3-((4-(Aminomethyl)-6-(trifluoromethyl)pyridin-2-yl)oxy)phenyl)(3-aminopyrrolidin-1-yl)methanone dihydrochloride] | < 300 |
| Cl.[2H]C([2H])(N)c1cc(Oc2cccc(C(=O)Nc3ccccc3)c2)nc(C(F)(F)F)c1 [Compound 1-8, 3-((4-(Aminomethyl-d2)-6-(trifluoromethyl)pyridin-2-yl)oxy)-N-phenylbenzamide hydrochloride] | < 300 |
